Data on 15 molecules can be found in patent publication US20040248877A1, “Polycyclic diazodioxide-based Bcl-2 protein antagonists and use thereof” (priority 2003, published 2004).

For data set [1], the target named is Bcl-XL (Homo sapiens, UniProt Q07817). The settings on record: cited from earlier work.
For data set [2], the system named is cell. The note with it: cell line not specified; cited from earlier work.
Data set [3] has as its system Bcl-2 and Bcl XL. The settings on record: cited from earlier work.
Data set [4] deals with A549 human lung cells expressing low Bcl-2 and high Bcl-XL levels. In words: Acute cytotoxicity (apoptotic activity), Alamar Blue viability. The format is cell-based. On the procedure:
(§1) The biological activity of the compounds provided herein were assessed in cellular system by the method similar to the one described by Amundson et al. (Amundson, S. A. et al, Cancer Research 2000, 60, 6101-6110), which is incorporated herein by reference in its entirety. The compounds were tested for acute cytotoxicity (apoptotic activity) using two human cancer cell lines expressing high levels of either Bcl-2 or Bcl-XL. HL60, human leukemic cells expressing high Bcl-2 and low Bcl-XL levels, and A549 human lung cells expressing low Bcl-2 and high Bcl-XL levels, were incubated with the compounds at concentrations between 0.5 and 1000 μg/mL for 4 hours at 37° C., 5% CO2. The number of viable cells were measured by mitochondrial transformation of Alamar Blue to a fluorescent dye. LC50 values for each test compound and controls are provided in the individual examples that follow.
(§2) The compounds provided herein were tested for acute cytoxicity (apoptotic activity) using two human cancer cell lines expressing high levels of either Bcl-2 or Bcl-XL. HL-60 cells expressing high Bcl-2 and low Bcl-XL levels, and A549 human lung cells expressing low Bcl-2 and high Bcl-XL levels (Amundson, S. A. et al. Cancer Research 2000, 60, 6101-6110) were incubated with the compounds at concentrations between […] for 4 hours at 37° C., 5% CO2. The number of viable cells were measured my mitochondrial transformation of Alamar Blue to a fluorescent dye. As negative controls, the compounds were tested against the cell lines with low levels of Bcl-2 expression, viz., MDA-453 cells (Enyedy, I. J. et al. J. Med. Chem. 2001, 44, 4313-4324). LC50 values for each compound and controls were determined.
A general note: The colour change of resazurin is a common sign of viable cells or microbes.

Data set [5] deals with HL60, human leukemic cells expressing high Bcl-2 and low Bcl-XL levels. The data set is described as above. The format is cell-based. Here is the method:
as §1, §2

[6] abbreviates: protein not specified, read-out: IC50 (FP).
Where [7] appears, read: Homo sapiens, A549, 4 h, read-out: LC 50 (μM) A549.
[8] abbreviates: Homo sapiens, HL-60, 4 h, read-out: LC 50 (μM) HL-60.

Structures are written as SMILES. Where two headings read alike, the source gives them in different places. A value given as a limit tells only on which side of the number the result lay.

Chain of Bcl-XL (Q07817 whole entry, species assumed): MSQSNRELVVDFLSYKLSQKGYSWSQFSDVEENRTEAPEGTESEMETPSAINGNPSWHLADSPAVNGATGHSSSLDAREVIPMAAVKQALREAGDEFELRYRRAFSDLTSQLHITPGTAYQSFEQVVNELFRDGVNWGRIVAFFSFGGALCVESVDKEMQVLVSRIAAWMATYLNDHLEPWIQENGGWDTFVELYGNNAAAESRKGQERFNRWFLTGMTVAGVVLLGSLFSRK

Consider `Cc1cc2c(C(C)C)c(O)c(O)c(C=O)c2c(O)c1-c1c(C)cc2c(C(C)C)c(O)c(O)c(C=O)c2c1O` [Compound 1, Gossypol], for which the 50% inhibitory concentration (IC50) (in general, the point on the concentration scale where inhibition reaches its midpoint) in data set [1] was 0.4 µM; in data set [2], 1.5 µM.
On to `CCCC[C@H]1C(=O)O[C@H](C)[C@H](NC(=O)c2cccc(NC=O)c2O)C(=O)O[C@@H](C)[C@@H]1OC(=O)CC(C)C` [Compound 2, Antimycin], for which the 50% inhibitory concentration (IC50) in data set [3] (setting [6]) was 2.5 µM; in data set [2], 1.2 µM.
With `CCOC(=O)OC(C#N)C1C=C(N)Oc2ccc(Br)cc21` (stereo not shown) [Compound 4], the CC50 in data set [4] (setting [7]) and in data set [5] (setting [8]) was more than 200 µM throughout. Also, the IC50 in data set [3] (setting [6]) was 9 µM; in data set [2], 18 µM.
Consider `CC(C)C(C(=O)O)C1C(=O)/C(=C/c2ccc(Br)cc2)SC1=S` (stereo not shown) [Compound 5], for which the CC50 in data set [4] (setting [7]) and in data set [5] (setting [8]) was more than 200 µM throughout. Besides, the half-maximal inhibitory concentration (IC50) in data set [3] (setting [6]) was 2.4 µM; in data set [2], approximately 90 µM.
Regarding `O=C(Nc1cc(S(=O)(=O)c2ccc(Cl)cc2)ccc1Cl)c1cc(Cl)cc(I)c1O` [Compound 6], the CC50 in data set [4] (setting [7]) and in data set [5] (setting [8]) was more than 200 µM throughout. The IC50 in data set [3] (setting [6]) is 3.3 µM; in data set [2], approximately 30 µM.
Regarding `CC(C)Cc1cc(-c2ccc(-c3ccc(OCC(=O)O)c(CC(C)C)c3)c(Cc3cccc4ccccc34)c2)ccc1CCC(=O)O` [Compound 7], the CC50 in data set [4] (setting [7]) and in data set [5] (setting [8]) was more than 200 µM throughout. Further, the IC50 in data set [3] (Bcl-2 antagonist designed by molecular modeling, read-out: IC50 value) was 0.114 µM.
For the molecule `[O-][N+]1=[N+]([O-])c2ccc(OCC(F)(F)F)cc2CCc2cc(OCC(F)(F)F)ccc21` [Example 1, dibenzo[c,g][1,2]diazocine, 11,12-dihydro-2,9-bis(2,2,2-trifluoroethoxy)-, 5,6-dioxide], the CC50 in data set [4] (Homo sapiens, A549, 4 hours at 37° C., read-out: LC50 value in A549 cell line) came to 80.9 µM; in data set [5] (Homo sapiens, HL-60, 4 hours at 37° C., read-out: LC50 value in HL-60 cell line) it was 26.1 µM.
Turning to `[O-][N+]1=[N+]([O-])c2ccc(OC(F)F)cc2CCc2cc(OC(F)F)ccc21` [Example 2, dibenzo[c,g][1,2]diazocine, 2,9-bis(difluoromethoxy)-11,12-dihydro-5,6-dioxide], the CC50 turned out to be 298 µM in data set [4] and 18.5 µM in data set [5].
In the case of `[O-][n+]1nc2ccccc2c2ccccc21` [compound 9], the CC50 in data set [4] (setting [7]) and in data set [5] (setting [8]) was more than 200 µM each time.
For the molecule `[O-]/[N+]1=N/c2ccc(F)cc2CCc2cc(F)ccc21` [compound 13], the CC50 in data set [4] (setting [7]) and in data set [5] (setting [8]) was more than 200 µM each time.
As for `[O-]/[N+]1=N/c2ccc(OCc3ccccc3)cc2CCc2cc(OCc3ccccc3)ccc21` [compound 15], the CC50 in data set [4] (setting [7]) and in data set [5] (setting [8]) was more than 200 µM each time.
`[O-]/[N+]1=N/c2ccc(OC(F)F)cc2CCc2cc(OC(F)F)ccc21` [compound 16]: the CC50 in data set [4] (setting [7]) and in data set [5] (setting [8]) was more than 200 µM throughout.
On to `[O-]/[N+]1=N/c2ccc(Oc3ccc(C(F)(F)F)cn3)cc2CCc2cc(Oc3ccc(C(F)(F)F)cn3)ccc21` [compound 18], for which the CC50 in data set [4] (setting [7]) and in data set [5] (setting [8]) was more than 200 µM each time.
As for `[O-]/[N+]1=N/c2ccc(Oc3ccc(C(F)(F)F)cn3)cc2CCc2ccccc21` [compound 19], the CC50 in data set [4] (setting [7]) and in data set [5] (setting [8]) was more than 200 µM each time.
On to `CCS(=O)(=O)c1ccc2c(c1)CCc1cc(S(=O)(=O)CC)ccc1/[N+]([O-])=N\2` [compound 21], for which the CC50 in data set [4] (setting [7]) and in data set [5] (setting [8]) was more than 200 µM throughout.
